Measured values reported in patent US7465448B2, “Chemokine receptor antagonists as therapeutic agents” (Medical College of Georgia Research Institute, Inc., priority 2002, dated 2008).
“Also recorded” adds a separate entry of the source.

Experiments:
CCR6 receptor = biological target: T1, CCR6 receptor (Homo sapiens, UniProt P51684); assay: Mip-3α gradient migration of mixed DCs with or without blocking anti-CCR6 antibody (Example 9); type: cell-based
T1 construct: a mixture of both CD123-positive (CCR6-positive) and CD123-negative (CCR6-negative) cells; endogenous in cells; host or cells: human monocyte-derived dendritic cells (mixed adherent and non-adherent fractions)
T1 sequence (P51684 1-374): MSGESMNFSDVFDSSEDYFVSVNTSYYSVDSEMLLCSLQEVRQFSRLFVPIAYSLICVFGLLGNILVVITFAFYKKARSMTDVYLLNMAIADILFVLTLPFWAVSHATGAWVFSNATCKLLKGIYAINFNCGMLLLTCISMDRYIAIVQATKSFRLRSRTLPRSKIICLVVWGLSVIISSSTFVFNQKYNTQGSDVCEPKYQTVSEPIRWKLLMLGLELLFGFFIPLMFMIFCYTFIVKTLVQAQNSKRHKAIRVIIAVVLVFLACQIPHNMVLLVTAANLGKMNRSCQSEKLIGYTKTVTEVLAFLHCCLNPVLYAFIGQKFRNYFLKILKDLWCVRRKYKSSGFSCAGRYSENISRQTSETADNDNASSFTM
From the text: Monocyte-derived human dendritic cells (adherent and non-adherent fractions) were harvested and pooled, as described in Example 8, yielding a preparation comprising a mixture of both CD123-positive (CCR6-positive) and CD123-negative (CCR6-negative) cells. In Example 8, it was shown that a gradient of mip-3α caused selective migration of the CD123+ (CCR6+) population.
The mixed population of DCs was allowed to migrate across a porous membrane in response to a gradient of mip-3alpha, as described in Example 8. Different treatment groups received a commercial anti-CCR6 antibody (10 ug/ml), an isotype-matched control antibody at the same concentration, or no antibody. After 18 hrs, migrating cells (recovered in the lower chamber of the chemotaxis assay apparatus) were harvested, counted, and analyzed by flow cytometry for CD123 expression. CD123 was used as a marker to identify the IDO-expressing population, rather than CCR6, because the anti-CCR6 blocking antibody could artifactually interfere with immunofluorescent staining for CCR6. Since both markers are co-expressed on the IDO+ cells with a one-to-one correspondence, either marker gives equivalent information.

CCR6^+/IDO^+ APCs = assay: Mip-3α-induced chemotaxis of dendritic cells, upper/lower chamber (Example 8); type: cell-based, human; conditions: 0.5×10^6 DCs/well, after 4 hours
Experimental: In this experiment, mip-3α-induced chemotaxis of CCR6^+/IDO^+ APCs was measured. Dendritic cells matured with a cytokine cocktail as described herein were used for a chemotaxis assay with mip-3α as the chemoattractant. Thus, monocytes were cultured in serum free medium (X-Vivo15) for five days in the presence of GMCSF (50 ng/mL) and IL-4 (50 ng/mL). After five days, cells were treated with a cytokine cocktail consisting of IL-1β (1870 U/mL), IL-6 (1000 U/mL), TNFα (1100 U/mL) and prostaglandin E2 (PGE2; 1.0 μg/mL), for two days. The cells were harvested and used for the chemotaxis assay. Control starting DCs were immunostained for CD123 and CCR6 (“Pre-Chemotaxis DCs”).
Mip-3α (0.5 μg/mL) was added to the different chambers and a defined number of DCs (0.5×10^6/well) were put on the upper chamber. After 4 hours, cells were counted in lower chamber of each group (Table 2). FACS immunostain was performed on all groups for CCR6 and CD123 (FIG. 7). […] Migration required a gradient of mip-3α from the upper chamber to the lower chamber, consistent with ligand induced chemotaxis.

IDO [1] = biological target: T2, IDO (Mus musculus, UniProt P28776); assay: MLR with sorted mouse tumor-draining lymph node cell fractions and BM3 T cell responders, with or without 1MT; type: cell-based; conditions: wild-type host, B78.GM tumor-draining LN
T2 construct: from tissue; host or cells: tumor-draining inguinal lymph node cells (sorted fractions) of C57BL/6 mice bearing B78.GM tumors
T2 sequence (P28776 whole entry): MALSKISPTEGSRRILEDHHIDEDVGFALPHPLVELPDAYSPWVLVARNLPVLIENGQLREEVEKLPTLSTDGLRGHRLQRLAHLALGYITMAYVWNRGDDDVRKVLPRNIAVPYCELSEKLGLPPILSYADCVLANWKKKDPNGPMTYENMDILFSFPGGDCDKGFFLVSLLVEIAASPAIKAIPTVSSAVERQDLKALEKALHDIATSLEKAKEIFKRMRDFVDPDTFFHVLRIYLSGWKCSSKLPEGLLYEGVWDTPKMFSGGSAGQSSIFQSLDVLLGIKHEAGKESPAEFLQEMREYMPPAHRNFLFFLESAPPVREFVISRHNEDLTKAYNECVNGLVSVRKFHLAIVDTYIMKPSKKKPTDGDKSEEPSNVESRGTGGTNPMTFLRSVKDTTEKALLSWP
From the text: (§1) Lymph node (LN) cells were harvested from inguinal LNs draining established B78.GM tumors. Control cells were harvested from the contralateral inguinal nodes in the same mouse. LN cells were irradiated and used as stimulators in allo-MLRs, with the responder cells being TCR-transgenic CD8^+ T cells from BM3 mice, as BM3 T cells recognize H-2K^b as an alloantigen (Tarazona, R., et al., Int. Immunol., 8:351-358, (1996)), and thus are reactive with all MHC class I positive cells from C57BL/6 tumor-bearing hosts. These cells are known by those of skill in the art to be a recognized assay system for IDO-mediated suppression of the T cell response (Munn, D. H., et al., Science, 297:1867-1870, (2002); Lee et al., Immunol., 107:1-9, (2002)). […] To determine the etiology of T cell suppression by APCs, tumor draining lymph node cells were harvested from B78.GM tumors and sorted into a B220^+ CD11c^+ plasmacytoid dendritic cell (pDC) fraction and a CD25^+CD4^+ regulatory T-cell (Treg) fraction. A third “all other” fraction was also collected. Each fraction was used as stimulators in an MLR with BM3 responders. […] Pooled draining LN cells (4 nodes) were stained and fractionated by 4-color cell sorting for the two populations shown in the top schematic. All other cells were collected in a third fraction. Each fraction was then used as stimulators in MLRs (FIG. 13), using 50,000 BM3 T cells as responders. The number of stimulators used in each MLR was adjusted to be the same as would have been present in 50,000 cells of the original LN preparation, based on the measured percentage of each sorted fraction. Thus, in the experiment shown, 500 cells of the sorted B220^+ CD11c^+ fraction were added per well, and 1500 cells of the CD25^+ CD4^+ fraction, while 48,000 cells of the “all other” fraction were used.

IDO [2] = assay: as above; type: cell-based
From the text: as §1

CXCR4 = biological target: T3, CXCR4 (Homo sapiens, UniProt P61073); assay: Yeast (S. cerevisiae) pheromone-pathway signaling assay with expressed CXCR4; type: cell-based; conditions: yeast strains expressing CXCR4-WT; not in control cells lacking the receptor
T3 construct: expressed in transfected cells; host or cells: Saccharomyces cerevisiae, CXCR4 subcloned in the Cp4258 vector, coupled through a mammalian/yeast hybrid G subunit
T3 sequence (P61073 whole entry, species assumed): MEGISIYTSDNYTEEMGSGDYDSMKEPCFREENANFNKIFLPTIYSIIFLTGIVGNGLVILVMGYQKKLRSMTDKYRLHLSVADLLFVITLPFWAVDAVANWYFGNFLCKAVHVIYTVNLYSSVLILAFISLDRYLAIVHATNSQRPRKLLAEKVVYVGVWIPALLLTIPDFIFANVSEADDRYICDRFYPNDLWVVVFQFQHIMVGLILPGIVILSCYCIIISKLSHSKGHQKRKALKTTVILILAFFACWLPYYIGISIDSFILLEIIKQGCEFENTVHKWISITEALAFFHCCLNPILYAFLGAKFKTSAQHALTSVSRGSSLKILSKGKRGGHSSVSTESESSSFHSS
From the text: For example, CCR6 can be functionally expressed in S. cerevisiae for the purpose of screening putative antagonists and for generating constitutively active mutants (CAMs). Similar studies have been performed by the inventors using related […] receptors CXCR4 and CCR5. Thus, chemokine receptors CXCR4 and CCR5 were expressed in a yeast strain in which these guanine nucleotide protein receptors (GPRs) were coupled to the mating pheromone response pathway by a mammalian/yeast hybrid G subunit. Consequently, stimulation of CXCR4 and CCR5 by the cognate ligands (SDF-1 and RANTES, respectively) activated signal transduction that results in histidine prototrophy or, in strains also carrying a pheromone-responsive FUS1-lacZ reporter gene, beta-galactosidase expression. In these experiments, SDF-1 stimulated histidine-independent growth and reporter gene expression in yeast strains expressing CXCR4-WT, but not in control cells lacking the receptor. […] All available CXCR4 antagonists blocked growth in histidine deficient medium resulting from CXCR4 activation and the induction of reporter gene expression stimulated by SDF-1.

Q: “Mip-3α: chemokine, ligand for the CCR6 chemokine receptor; chemotactic factor for immature dendritic cells” was tested. Which “Increase of migration of CD123+ cells” value (CCR6 receptor; gradient of mip-3α, 18 hrs) did it give?
A: The value was greater than 10 fold.

Q: What about the “Purity of CD123+ cells in migrated population” value (CCR6 receptor; gradient of mip-3α, starting population 68% CD123+) of the same compound?
A: Its value is 96%.

Q: And the “Mip-3α induced migration without gradient” value (CCR6 receptor; mip-3α present on both sides of the membrane)?
A: The value was “substantially reduced”.

Q: What about the “Number of Cells in Lower Chamber” value (CCR6^+/IDO^+ APCs; Mip-3α (0.5 μg/mL) in lower chamber only (gradient)) of the same compound?
A: Its value is 2.96.

Q: What about the “Number of Cells in Lower Chamber” value (CCR6^+/IDO^+ APCs; Mip-3α (0.5 μg/mL) in upper and lower chamber) of the same compound?
A: Its value is 0.98.

Q: What about the “Number of Cells in Lower Chamber” value (CCR6^+/IDO^+ APCs; Mip-3α (0.5 μg/mL) in upper chamber only) of the same compound?
A: The value was 0.73.

Q: How did the “IDO-mediated suppression in mixing experiments (pDCs plus "all other" fraction)” value (IDO [1]) turn out when Cn1cc(CC(N)C(=O)O)c2ccccc21 (centres unmarked) [1-MT, 1-methyl-(D,L)-tryptophan] was run?
A: The value was “can be fully reversed; also recorded: again fully reversed”.

Q: What about the “Suppression by B220+ CD11c+ (pDC) fraction” value (IDO [1]) of the same compound?
A: Its value is “fully reversed”.

Q: What about the “Effect on MLR with LN fractions from IDO-knockout host” value (IDO [2]; IDO-KO host, any group) of the same compound?
A: The value was “no enhancing effect”.

Q: What about the “Suppression mediated by CD25+ CD4+ Tregs” value (IDO [2]; wild-type host, B78.GM tumor-draining LN) of the same compound?
A: The value was “not affected”.

Q: How did the “Histidine-independent growth and reporter gene expression” value (CXCR4) turn out when SDF-1: cognate ligand of CXCR4 was run?
A: The value was “stimulated”.
